What was measured:
[1] = system: STAT3; experiment: Serum-induced STAT3 tyrosine phosphorylation (immunoblot); format: cell-based, human
Description: (§1) For immunoprecipitation and immunoblotting experiments, cells were grown to confluence in 10 cm dishes and maintained in full medium or starved in serum-free medium overnight before the application of appropriate stimuli. Lysates were prepared in TBSN buffer (50 mM Tris-HCl pH7.5, 150 mM NaCl, 1 mM EDTA, 1% NP-40) supplemented with protease inhibitors (1 mM Na3 VO4, 10 mM Na4P2O7, 10 mM NaF, 5 mM EGTA, 10 mM Benzamidine, 0.2 mM PMSF and 1 μg/ml each of leupeptin, aprotinin, pepstatin). Lysates were cleared by centrifugation at 16,000×g for 10 minutes and used directly for immunoprecipitations or stored at −20° C. for further use.
Equal amounts of lysates were incubated with the appropriate antibody for 2 hours at 4° C.
(§2) Immune complexes were then allowed to bind to protein A-Sepharose beads for 1 hour at 4° C. and collected by centrifugation. Immunoprecipitates were washed three times in 100 mM Tris-HC1 pH 7.5, 100 nM NaCl, 1 mM EDTA, 0.1 mM PMSF, 0.5% NP-40. Thereafter, samples were taken up in sodium dodecyl sulphate (SDS) loading buffer and boiled for 5 min.
Samples were separated by electrophoresis through 6% polyacrylamide-SDS gels. Proteins were then transferred to polyvinylidene difluoride (PVDF) membranes with a semi-dry electroblotting apparatus. The membranes were incubated with appropriate primary antibodies at room temperature for 1 hour or 4° C. overnight according to suppliers' instructions, washed and stained with horseradish peroxidase-coupled secondary antibodies. The membranes were developed with an enhanced chemiluminescence kit (Amersham).
as §1, with “Na3VO4,” for “Na3 VO4,”, “aprotinin and” for “aprotinin,”, “use. AG490 was purchased from Sigma; PD153035 was provided by Glaxo-Smith-Kline and PD168393 was purchased from Calbiochem.” for “use.”
as §2, with “Equal amounts of lysates were incubated with the appropriate antibody for 2 hours at 4° C. Immune” for “Immune”, “in 10” for “in 100”, “mM Tris-HCl” for “mM Tris-HC1”, “100 mM” for “100 nM”

[2] = system: ERKs; experiment: ERK phosphorylation (Western blotting); format: cell-based, human; settings: for activation of ERKs by TPA (phosphorylation of ERK½): BR293 cells; for activation of ERKs in response to serum: result not shown
Description: ERKs are unaffected by OdDHL (a) BR293 cells were serum-starved (lane 1) or starved and stimulated with TPA for 30 min alone (lane 2) or in the presence of increasing concentrations of OdDHL (lanes 3-6) or 100 μM OHHL (lane 7). Cell lysates were prepared and analysed by Western blotting for ERK phosphorylation with an antibody specific for phospho-ERK½ (upper panel) and for ERK content with an antibody against ERKs (lower panel). (b) BR293 cells were serum-starved (lane 1) or starved and stimulated with Anisomycin for 30 min alone (lane 2) or in the presence of increasing concentrations of OdDHL (lanes 3-6) or 100 μM OHHL (lane 7). Cell lysates were prepared and analysed by Western blotting for JNK/SAPK phosphorylation with an antibody specific for phospho-JNKs (upper panel) and for SAPK/JNK content with an antibody against JNKs (lower panel). (c) BR293 cells were treated as described in (b) and lysates were analysed by Western blotting for p38^MAPK phosphorylation with an antibody specific for phospho-p38 (upper panel) and for p38 content with an antibody against p38 (lower panel).

[3] = system: MCF-7 cells; experiment: DAPI staining, confocal microscopy (apoptosis); format: cell-based, human; settings: growing cells treated; 100 μM (FIG. 17)
Description: OdDHL induces apoptosis of BC cells (a) MCF-7 cells were cultured in full medium alone or in the presence of 1001M OdDHL or 100 μM OHHL. […] Left-hand panels show DAPI, right-hand panels show the corresponding phase contrast and middle panels the image overlays. (b) MDA-MB-468 cells were cultured in full medium alone or in the presence of 100 μM OdDHL or 100 μM OHHL. After 18 hours cells were fixed, stained and examined as in (a). (c) BR293, MCF-7 and MDA-MD-468 cells were cultured in full medium alone (lanes 1, 3, 5) or in the presence of 100 μM OdDHL (lanes 2, 4, 6) or 400 μM etoposide (lane 7). After 18 hours cells were lysed and analysed for PARP cleavage by Western blotting with an anti-PARP antibody. Full length PARP is labelled and the lower arrow indicates the major caspase cleavage fragment.

[4] = system: BR293 cells; experiment: DAPI staining, fluorescence microscopy (apoptosis); format: cell-based, human; settings: full medium (10% FCS); 24 h
Description: OdDHL blocks BC cell oroliferation and induces apoptosis. BR293 cells were grown in full medium (10% FCS) in the absence or presence of OdDHL or the control OHHL. After 24 h, cell were harvested, stained with DAPI and examined by fluorescence microscopy.

[5] = system: murine STAT3; experiment: STAT3-dependent luciferase reporter (SIE2-luc) in transfected COS-1 cells; format: cell-based; settings: COS-1 cells transfected with murine STAT3
Description: (c) COS-1 cells were transfected with an expression vector for STAT3, a STAT3-responsive luciferase reporter (SIE2-luc) and a control gene for β-galactosidase. […] After 6 hours cells were harvsted and reporter gene expression analysed. Results are normalised against β-galactosidase values and expressed as averages +/−SD (n=3).

[6] = system: BR293 cells; experiment: Cell proliferation assay (cell counting); format: cell-based, human; settings: for growth of cultured cells (confluence): full medium, 48 h, 100 μM (FIG. 16a)
Description: Equal numbers of BR293 and MDA-MB-468 cells were seeded in MEM containing 10% FCS into 10 cm dishes. […]. For the 48 time points, fresh medium containing the appropriate inhibitor was applied to the cells after 24 hours. Controls were allowed to grow for 48 hours in the absence of inhibitor. Thereafter, all the cells were washed twice with ice cold PBS, harvested and counted under a phase-contrast microscope. Values are expressed as averages+S.D. (n=3).
Equal numbers of BR293, MCF-10F, MCF-7, MDA-MB-468, HKEK293 and COS1 cells were seeded in the appropriate growth medium into 10 cm dishes. Cells were allowed to grow in the presence of various concentrations of OdDHL or OHHL for 24 or 48 hours. For the 48-hour time points, fresh medium containing the appropriate inhibitor was applied to the cells after 24 hours. Controls were allowed to grow for 48 hours in the absence of inhibitor. Thereafter, all the cells were washed twice with ice cold PBS, harvested and counted under a phase-contrast microscope. Values are expressed as averages ±S.D. (n=3).

SMILES	effect on serum-induced STAT3 tyrosine phosphorylation ([1]; BR293 cells, 100 μM)	activation of ERKs by TPA (phosphorylation of ERK½) [2]	activation of ERKs in response to serum [2]	nuclear integrity by DAPI staining [3]	nuclear morphology / viability after DAPI staining [4]	EGF-stimulated STAT3-dependent reporter gene expression, effect of co-treatment [5]	growth of cultured cells (confluence) [6]	STAT3 phosphorylation at sub-inhibitory concentration ([1]; BR293 cells, 50 μM OdDHL)	delayed STAT3 phosphorylation in response to serum ([1]; BR293 cells, 100 μM pretreatment (FIG. 18c))	serum-induced phosphorylation of STAT3 ([1]; BR293 cells, pre-incubation (FIG. 11 upper panel))	concentration at which serum-induced STAT3 tyrosine phosphorylation was inhibited ([1]; BR293 cells, pretreatment 15 minutes with increasing concentrations) [µM]	threshold concentration for inactivation of serum-induced STAT3 phosphorylation ([1]; FIG. 15)	inhibition of proliferation ([6]; over a 48-hour period)
CCCC(=O)CC(=O)N[C@H]1CCOC1=O [OHHL, N-(3-oxohexanoyl)-L-homoserine lactone, reference compound]	only a slight effect	Neither OdDHL nor OHHL had any effect	Neither OdDHL nor OHHL had any effect	unaffected	remained viable	had no effect	reached confluence in 48 hours	–	–	–	–	–	–
CCCCCCCCCC(=O)CC(=O)N[C@H]1CCOC1=O [OdDHL, N-(3-oxo-dodecanoyl)-L-homoserine lactone]	–	Neither OdDHL nor OHHL had any effect	Neither OdDHL nor OHHL had any effect	nuclear disruption	induced DNA condensation and nuclear fragmentation	augmented	grew poorly or not at all	small increase	prevented the delayed STAT3 phosphorylation in response to serum	blocked the serum-induced phosphorylation of STAT3	100	above 50 μM	70%-80%
